Assays:
[1] = test system: Mycobacterium tuberculosis; experiment: Antitubercular activity against Mycobacterium tuberculosis H37Rv by microplate alamar blue assay; assay type: functional, organism-based
Plasmodium falciparum = experiment: Antiprotozoal activity against Plasmodium falciparum K1 infected in human erythrocytes at 4.8 ug/m after 72 hrs by [3H]hypoxanthine incorporation; assay type: functional
Trypanosoma cruzi = experiment: Antiprotozoal activity against Trypanosoma cruzi Tulahuen C2C4 infected in rat skeletal myoblast at 4.8 ug/ml after 48 hrs; assay type: functional; settings: Tulahuen C2C4, 48 h
[2] = test system: Trypanosoma brucei rhodesiense; experiment: Antiprotozoal activity against Trypanosoma brucei rhodesiense STIB900 at 4.8 ug/mL by microplate alamar blue assay; assay type: functional
Leishmania donovani = experiment: Antiprotozoal activity against Leishmania donovani MHOM/ET/67/L82 at 4.8 ug/m after 72 hrs by fluorimetry; assay type: functional

`O=C1OC(NCC(O)CO)C(Cl)=C1Cl` (stereo unspecified) gave an IC50 [1] greater than 100 µg/mL and an IC90 [1] greater than 100 µg/mL.
With `C[C@@H]1CC[C@H]2[C@@H](C)C(=O)O[C@@H]3O[C@@]4(C)CC[C@@H]1[C@]32OO4` [ARTEMISININ] the “inhibition (INH)” value (Plasmodium falciparum) was 100%.
`O=C(Cn1ccnc1[N+](=O)[O-])NCc1ccccc1` [BENZNIDAZOLE] gave an inhibition at 4.8 µg/mL (Trypanosoma cruzi) of 89.6%.
In the case of `Nc1nc(N)nc(Nc2ccc([As]3SCC(CO)S3)cc2)n1` (stereo unspecified) [MELARSOPROL], the inhibition at 4.8 µg/mL [2] is reported as 98.2%.
With `CCCCCCCCCCCCCCCCOP(=O)([O-])OCC[N+](C)(C)C` [MILTEFOSINE] the “inhibition (INH)” value (Leishmania donovani) was 92.5%.
